According to patent publication US6344571B2, “Water soluble analogs and prodrugs of paclitaxel” (Pharmachemie B.V., priority 1998, dated 2002):
pIC50: −log10 of the molar value. In brackets after ≈: the same amount, converted by molar mass. Entries after “also recorded” stand apart in the source; their conditions may differ. Where two headings read alike, the source gives them in different places.

Columns and labels:
[1] = system: WIDR Colon cancer; test: Antiproliferative SRB assay, WIDR; type: cell-based, human; details: vs untreated cells
From the text: (§1) Determination of the IC50-values for the new synthesized prodrugs have been determined with a variety of cell lines and have been compared with the IC50-value of paclitaxel 1 (see table II) Compounds 1, 5, 8, 11,:
(§2) The following human tumor cell lines were used:
(§3) Cell lines WIDR, M19 MEL, A498 and IGROV belong to the currently used anti-cancer screening panel of the National Cancer Institute, USA (Skeham et al., J. Nat. Cancer Inst. 85: 1107-1112, 1990).
(§4) Prior to the experiments a myocoplasma test was carried out on all cell lines and found to be negative. All cell lines, except ETSA-T, were maintained in a continuous logarithmic culture in RPMI medium with Hepes and Phenol red supplemented with 10% bovine calf serum (BCS), penicillin 111 IU/ml, streptomycin 111 μg/ml, gentamycin 46 μg/ml and insulin 10.6 μg/ml. EVSA-T was maintained in DMEM with 5% BCS and antibiotics as described. The cells were mildly trypsinized for passage and for use in experiments.
(§5) The compounds of this invention were dissolved to a concentration of 177147 ng/ml as follows:
(§6) On day 0, 200 μl of trypsinized tumor cells (2*10^3 cells/well) were plated in 96-wells flatbottom microtiter plates (Costar, no. 3799, Badhoevedorp, The Netherlands). The plates were preincubated 24 hr at 37° C., 5% CO2 to allow the cells to adhere.
(§7) […] The final volume of column 3 was adjusted to 200 μl with PBS. Column 2 was used for the blank. To column 1 PBS was added to diminish interfering evaporation.
(§8) […] Subsequently the cells were fixed with 10% trichloroacetic acid in Milli Q water (Millipore, Etten Leur, The Netherlands) and placed at 4° C. for one hour.
(§9) After five washings with tap water, the cells were stained for at least 15 min. with 0.4% SRB, dissolved in 1% acetic acid, and subsequently washed with 1% acetic acid to remove the unbound stain. The plates were air dried and the bound protein was dissolved by using 150 μl 10 mmol/l tris base. The absorbance was read at 540 nm using an automatic microplate reader (Titertec, Flow Laboratories LtD., Irvine, Scotland). Data were used for construction of concentration-response curves and determination of the IC50-value.

[2] = system: EVSA-T Breast cancer; test: Antiproliferative SRB assay, EVSA-T; type: cell-based, human; details: 37° C. 72 h, vs untreated cells
Protocol: as §1, §2
(§10) MCF7 is estrogen receptor ER+/Progesterone receptor PgR+ and EVSA-T is ER-/PgR-.
as §4, §5, §6, §7, §8, §9

[3] = system: MCF7 Breast cancer; test: Antiproliferative SRB assay, MCF7; type: cell-based, human; details: 37° C. 72 h, vs untreated cells
Protocol: as §1, §2, §10, §4, §5, §6, §7, §8, §9

[4] = system: IGROV Ovarian cancer; test: Antiproliferative SRB assay, IGROV; type: cell-based, human; details: 37° C. 72 h, vs untreated cells
From the text: as §1, §2, §3, §4, §5, §6, §7, §8, §9

[5] = system: M19 MEL Melanoma; test: Antiproliferative SRB assay, M19 MEL; type: cell-based, human; details: vs untreated cells
From the text: as §1, §2, §3, §4, §5, §6, §7, §8, §9

[6] = system: H226; test: Antiproliferative SRB assay, H226; type: cell-based, human; details: vs untreated cells
Protocol: as §1, §2
HA266 non small cell lung cancer
as §4, §5, §6, §7, §8, §9

[7] = Stability in PBS-buffer (pH 7.4), degradation to paclitaxel; type: physicochemical; details: for stability in PBS buffer: PBS-buffer pH 7.4
Protocol: The paclitaxel prodrugs (5, 6, 8, 11) were dissolved in water, sonicated and centrifuged. 100 μl of the above fluid was mixed with 400 μl of plasma (heparin) or PBS-buffer (pH7.4), respectively, in such way that the concentration of the prodrug was about 0.5 mg/mL. […] After mixing for 2 minutes (using a vortex), this mixture was centrifuged (2 minutes, 13000 g) and 100 μl EtOAc was evaporated (30 minutes, in vacuo). The (pro)drugs were dissolved in 50 μl eluent and analyzed by HPLC (Longnecker, S. M. Cancer Treat Rep. 1987, 71, 53-59). The efficiency for the extraction of paclitaxel was about 80%.

[8] = system: A498 Renal cancer; test: Antiproliferative SRB assay, A498; type: cell-based, human; details: 37° C. 72 h, vs untreated cells
From the text: as §1, §2, §3, §4, §5, §6, §7, §8, §9

[9] = Stability in human plasma, degradation to paclitaxel; type: in vitro ADME; details: for T1/2 Human Plasma: human plasma (heparin), 37° C., time in which 50% of the analog is degraded to paclitaxel
Protocol: The paclitaxel prodrugs (5, 6, 8, 11) were dissolved in water, sonicated and centrifuged. 100 μl of the above fluid was mixed with 400 μl of plasma (heparin) or PBS-buffer (pH7.4), respectively, in such way that the concentration of the prodrug was about 0.5 mg/mL. The plasma or PBS-buffer, respectively, was incubated at 37° C. and on different points in time (T=0, 0.5, 1, 4, 20, 48 hours) 50 μl was extracted with 150 μl of EtOAc. After mixing for 2 minutes (using a vortex), this mixture was centrifuged (2 minutes, 13000 g) and 100 μl EtOAc was evaporated (30 minutes, in vacuo). The (pro)drugs were dissolved in 50 μl eluent and analyzed by HPLC (Longnecker, S. M. Cancer Treat Rep. 1987, 71, 53-59). The efficiency for the extraction of paclitaxel was about 80%.

[10] = Water solubility (suspension in water or PBS-buffer, HPLC)
Protocol: Water Solubility: Paclitaxel or paclitaxel prodrugs (5, 6, 8, 11) were suspended in water or PBS-buffer (pH 7.4) until a concentration was reached of 2 mg/ml. The suspensions were sonicated for 15 minutes and centrifuged (13000 g) for 10 minutes (Nicolaou, K. C. et al. Nature 1993, 364, 464-466). The above fluid was analyzed, using HPLC. The paclitaxel (prodrug) concentration was determined using paclitaxel standards in methanol.
HPLC: Rheodyne injection valve (20 μl loop); Lichrospher 5RP18 column (200×3 mm, Chrompack); UV-detector (Model 759A, Applied Biosystems); eluent: CH3CN/MeOH/H2O: 5/1/4 in 10 mM NH4OAc (pH 5.0) (Willey, T. A. J. Chromatography 1993, 621, 231-238). The detection of the (pro)drugs was performed at 226 nm, where it is supposed that the extinction coefficients of paclitaxel and paclitaxel prodrugs are equal. The concentrations were determined by measuring the relative area of paclitaxel or the paclitaxel prodrugs.

[11] = system: OVCAR-3 cells; test: In vitro antiproliferative effects, OVCAR-3; type: cell-based, human; details: for pIC50: 37° C. 72 h, vs untreated cells
Protocol: The human tumor cell line OVCAR-3 was used. OVCAR is an ovarium carcinoma.
In vitro antiproliferative effects: paclitaxel or paclitaxel prodrugs were dissolved in DMSO to give a concentration of 5 mM. Concentrations were verified by measuring the OD at 226 nm. The antiproliferative effects of drugs and prodrugs were determined with the use of OVCAR-3 cells. Cells in supplemented tissue culture medium (DMEM, 10% fetal calf serum with 50 IU/ml penicillin and 50 microgram/ml streptomycin) were seeded in triplicate in 96-well culture plates (5000/well, 100 microliter). After 24 h, 100 microliter of culture medium containing drug or prodrug was added to give final concentrations ranging from 1 picomolar to 10 micromolar.
The cells were incubated for an additional 72 h, fixed with 10% trichoroacetic acid and stained with sulforhodamine B. The absorbance at 540 nm was read and the antiproliferative effects were expressed as IC50 values, inhibition when compared with control cell growth (Houba et al. Bioconj. Chem. 1996, 7, 606-611).

[12] = system: human tumor cell lines; test: Cytotoxic activity in human tumor cell lines, overall comparison with paclitaxel; type: cell-based
Protocol: as §1, §2, §6
On day 2, 100 μl of the highest drug concentration was added to the wells of column 12 and from there diluted 3-fold to column 3 by serial transfer of 100 μl using an 8 channel micropipette. The final volume of column 3 was adjusted to 200 μl with PBS. Column 2 was used for the blank. To column 1 PBS was added to diminish interfering evaporation.
On day 7 the incubation was terminated by washing the plates twice with PBS. […]
After five washings with tap water, the cells were stained for at least 15 min. with 0.4% SRB, dissolved in 1% acetic acid, and subsequently washed with 1% acetic acid to remove the unbound stain. […] The absorbance was read at 540 nm using an automatic microplate reader (Titertec, Flow Laboratories LtD., Irvine, Scotland). […]

[13] = system: microtubule assembly; details: SAR studies, literature; cited from earlier work
[14] = SAR studies, literature; cited from earlier work

Row | IC50 WIDR [1] [ng/mL] | IC50 EVSA-T [2] [ng/mL] | IC50 MCF7 [3] [ng/mL] | IC50 IGROV [4] [ng/mL] | IC50 M19 MEL [5] [ng/mL] | IC50 H226 [6] [ng/mL] | IC50 A498 [8] [ng/mL] | T1/2 Human Plasma [9] | Water Solubility [10] [mg/mL] | degradation to paclitaxel in human plasma [9] | SMILES | stability in PBS buffer [7] | further results
1 | <3 | <3 | <3 | <3 | 3 (≈ 0.00309 µM) | 10 (≈ 0.0103 µM) | 39 (≈ 0.0402 µM) | 20 h | 0.2 | – | CC(=O)O[C@H]1C(=O)[C@@]2(C)[C@H]([C@H](OC(=O)c3ccccc3)[C@]3(O)C[C@H](OC(=O)[C@H](OC(=O)CC(O)C(=O)O)[C@@H](NC(=O)c4ccccc4)c4ccccc4)C(C)=C1C3(C)C)[C@]1(OC(C)=O)CO[C@@H]1C[C@@H]2O (stereo partly drawn) [Compound 5, 2′-Malylpaclitaxel] | sufficient stability; also recorded: stable | paclitaxel detected in PBS-buffer after 24 hours ([7]; PBS-buffer pH 7.4, after 24 hours): only traces
2 | <3 | <3 | <3 | 233 | <3 | <3 | <3 | 4 h | 0.6 | fast hydrolysis rate | CC(=O)O[C@H]1C(=O)[C@@]2(C)[C@H]([C@H](OC(=O)c3ccccc3)[C@]3(O)C[C@H](OC(=O)[C@H](OC(=O)CC(O)C(=O)[O-])[C@@H](NC(=O)c4ccccc4)c4ccccc4)C(C)=C1C3(C)C)[C@]1(OC(C)=O)CO[C@@H]1C[C@@H]2O.[Na+] (stereo partly drawn) [Compound 6, Sodium salt of 2′-malylpaclitaxel] | sufficient stability | activity against OVCAR-3 cells compared to paclitaxel [11]: comparable; pIC50 [11]: 9.10; amount degraded to paclitaxel within 4 hours ([9]; within 4 hours, matrix not printed in the sentence (human plasma per Table I)): about 500; water solubility compared with paclitaxel [10]: Best water solubility; water solubility relative to paclitaxel (times more watersoluble) [10]: sixty
3 | 589 (≈ 0.607 µM) | 300 (≈ 0.309 µM) | 390 (≈ 0.402 µM) | 241 (≈ 0.248 µM) | 1344 (≈ 1.39 µM) | 706 (≈ 0.728 µM) | 1435 (≈ 1.48 µM) | no pacl.^b | 0.003 | no degradation to the parent drug | CC(=O)O[C@H]1C(=O)[C@]2(C)[C@@H](OC(=O)CC(O)C(=O)O)C[C@H]3OC[C@@]3(OC(C)=O)[C@H]2[C@H](OC(=O)c2ccccc2)[C@]2(O)C[C@H](OC(=O)[C@H](O)[C@@H](NC(=O)c3ccccc3)c3ccccc3)C(C)=C1C2(C)C (stereo partly drawn) [Compound 11, 7-Malylpaclitaxel] | sufficient stability; also recorded: no degradation to the parent drug | cytotoxic activity compared to paclitaxel [12]: reduced cytotoxic activity

More lines, now with the values behind:

Row | SMILES | IC50 WIDR [1] [ng/mL] | IC50 EVSA-T [2] [ng/mL] | IC50 MCF7 [3] [ng/mL] | IC50 IGROV [4] [ng/mL] | IC50 M19 MEL [5] [ng/mL] | IC50 H226 [6] [ng/mL] | IC50 A498 [8] [ng/mL] | T1/2 Human Plasma [9] | Water Solubility [10] [mg/mL] | degradation to paclitaxel in human plasma [9] | stability in PBS buffer [7] | further results
4 | CC(=O)O[C@H]1C(=O)[C@]2(C)[C@@H](OC(C)=O)C[C@H]3OC[C@@]3(OC(C)=O)[C@H]2[C@H](OC(=O)c2ccccc2)[C@]2(O)C[C@H](OC(=O)[C@H](O)[C@@H](NC(=O)c3ccccc3)c3ccccc3)C(C)=C1C2(C)C [7-acetylpaclitaxel] | – | – | – | – | – | – | – | – | – | – | – | activity in microtubule assembly assays [13]: as active as paclitaxel
5 | CC(=O)O[C@H]1C(=O)[C@@]2(C)[C@H]([C@H](OC(=O)c3ccccc3)[C@]3(O)C[C@H](OC(=O)[C@H](O)[C@@H](NC(=O)c4ccccc4)c4ccccc4)C(C)=C1C3(C)C)[C@]1(OC(C)=O)CO[C@@H]1C[C@@H]2O [paclitaxel, Paclitaxel] | <3 | <3 | <3 | 33 (≈ 0.0386 µM) | <3 | <3 | 5 (≈ 0.00586 µM) | – | – | – | – | pIC50 [11]: 9.60; Water Solubility ([10]; suspended to 2 mg/ml, sonicated 15 minutes, centrifuged, HPLC): 0.01 mg/mL
6 | CC(=O)OC1C(=O)C2(C)C(OC(=O)CC(O)C(=O)O)CC3OCC3(OC(C)=O)C2C(OC(=O)c2ccccc2)C2(O)CC(OC(=O)C(OC(=O)CC(O)C(=O)O)C(NC(=O)c3ccccc3)c3ccccc3)C(C)=C1C2(C)C (stereo not drawn) [Compound 8, 2′, 7-Bis(malyl)paclitaxel] | 167 (≈ 0.154 µM) | 59 (≈ 0.0543 µM) | 69 (≈ 0.0635 µM) | 49 (≈ 0.0451 µM) | 311 (≈ 0.286 µM) | 241 (≈ 0.222 µM) | 436 (≈ 0.401 µM) | no pacl.^b | 0.5 | no degradation to the parent drug | sufficient stability; also recorded: no degradation to the parent drug | cytotoxic activity compared to paclitaxel [12]: reduced cytotoxic activity
7 | CC(=O)O[C@H]1C(=O)[C@@]2(C)[C@H]([C@H](OC(=O)c3ccccc3)[C@]3(O)C[C@H](OC(=O)[C@H](OC(C)=O)[C@@H](NC(=O)c4ccccc4)c4ccccc4)C(C)=C1C3(C)C)[C@]1(OC(C)=O)CO[C@@H]1C[C@@H]2O [2′-acetyl-paclitaxel] | – | – | – | – | – | – | – | – | – | – | – | cytotoxic activity compared with paclitaxel [14]: almost the same as for paclitaxel; activity in microtubule assembly assays [13]: loss of the ability to promote microtubule assembly
